Among the data in patent US20220144812A1, “QUINOLINE DERIVATIVES AND THEIR USE FOR THE TREATMENT OF CANCER” (Epizyme, Inc., priority 2019, published 2022) are IC50 values, retold here.

The term IC50 denotes the midpoint of a concentration-inhibition curve.

One test deals with T1, CREBBP (1084-1701) (Homo sapiens, UniProt Q92793).
T1 construct: measured in the following biochemical assay using CREBBP (1084-1701); purchased
The test is described as follows: Biochemical assay for CREBBP (1084-1701), SAMDI. To be noted: SAMDI, read-out: CREBBP Biochemistry IC50. A digest of the protocol: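 Acetyltransferase activity measured by SAMDI mass spectrometry after capture on biochip. Enzyme sat with compound 30 min at RT before acetyl-CoA and biotinylated H3 11-25 (K14R, K23R) peptide were added for 30 min at RT. Formic acid quench, bicarbonate neutralisation; IC50 values reported.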

Another test concerns the target T2, EP300 (P300(1048-1664)) (Homo sapiens, UniProt Q09472).
T2 construct: P300(1048-1664)
T2 sequence (Q09472 1048-1664): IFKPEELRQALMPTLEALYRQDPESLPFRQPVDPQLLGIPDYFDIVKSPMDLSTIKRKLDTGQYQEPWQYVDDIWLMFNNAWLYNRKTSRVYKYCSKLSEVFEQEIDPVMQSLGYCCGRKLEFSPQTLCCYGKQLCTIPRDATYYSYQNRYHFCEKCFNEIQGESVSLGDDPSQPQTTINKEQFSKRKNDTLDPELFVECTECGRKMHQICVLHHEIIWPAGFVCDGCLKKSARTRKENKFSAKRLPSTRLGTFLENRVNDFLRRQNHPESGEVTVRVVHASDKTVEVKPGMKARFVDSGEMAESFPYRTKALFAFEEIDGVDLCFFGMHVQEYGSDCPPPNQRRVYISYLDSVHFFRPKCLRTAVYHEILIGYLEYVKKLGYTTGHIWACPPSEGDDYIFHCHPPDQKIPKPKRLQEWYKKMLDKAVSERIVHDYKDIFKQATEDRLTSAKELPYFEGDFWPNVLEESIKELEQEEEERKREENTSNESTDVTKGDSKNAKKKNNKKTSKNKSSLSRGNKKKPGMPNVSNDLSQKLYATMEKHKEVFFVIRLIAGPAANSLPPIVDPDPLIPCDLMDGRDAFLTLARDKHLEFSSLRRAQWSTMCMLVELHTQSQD
The test is described as follows: Biochemical assay for EP300, SAMDI. To be noted: EP300, SAMDI; read-out: EP300 Biochemistry IC50. An excerpt: The following example describes materials and methods relating to a biochemical assay for EP300. IC50 values (micromolar (μM)) are summarized in Table 1, Table 2, and Table 3 under the column labeled: “EP300 Biochemistry IC50 (micromolar).”

Test [1] has as its system H3K18Ac in HB-CLS-2 cells. The test is described as follows: H3K18AC in-cell western (ICW) assay. It counts as cell-based. The following applies: H3K18Ac in-cell western; read-out: CREBBP ICW IC50. In outline:
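In-cell western: after methanol fixation, blocking, overnight 4° C anti-H3K18Ac staining, then 800CW secondary plus DRAQ5 for DNA content, integrated intensities were scanned at 800 and 700 nm. Before this, compound exposure lasted 2 hr at 37° C in HB-CLS-2 cells plated 16–24 hours earlier. Values expressed as IC50 (μM).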

The test system of the next test is 647V cells. Kind of test: High throughput proliferation (HTP) assay. It counts as cell-based. To be noted: Homo sapiens, 647-V, high throughput proliferation; read-out: CREBBP HTP IC50. A digest of the protocol: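 Proliferation IC50 (micromolar) derived from a 7-day CellTiter-Glo viable-cell readout in 647V cells exposed, in triplicate, to rising compound concentrations; cells grown in DMEM plus 15% heat-inactivated FBS at 37° C under 5% CO2.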

T1 sequence (Q92793 1084-1701): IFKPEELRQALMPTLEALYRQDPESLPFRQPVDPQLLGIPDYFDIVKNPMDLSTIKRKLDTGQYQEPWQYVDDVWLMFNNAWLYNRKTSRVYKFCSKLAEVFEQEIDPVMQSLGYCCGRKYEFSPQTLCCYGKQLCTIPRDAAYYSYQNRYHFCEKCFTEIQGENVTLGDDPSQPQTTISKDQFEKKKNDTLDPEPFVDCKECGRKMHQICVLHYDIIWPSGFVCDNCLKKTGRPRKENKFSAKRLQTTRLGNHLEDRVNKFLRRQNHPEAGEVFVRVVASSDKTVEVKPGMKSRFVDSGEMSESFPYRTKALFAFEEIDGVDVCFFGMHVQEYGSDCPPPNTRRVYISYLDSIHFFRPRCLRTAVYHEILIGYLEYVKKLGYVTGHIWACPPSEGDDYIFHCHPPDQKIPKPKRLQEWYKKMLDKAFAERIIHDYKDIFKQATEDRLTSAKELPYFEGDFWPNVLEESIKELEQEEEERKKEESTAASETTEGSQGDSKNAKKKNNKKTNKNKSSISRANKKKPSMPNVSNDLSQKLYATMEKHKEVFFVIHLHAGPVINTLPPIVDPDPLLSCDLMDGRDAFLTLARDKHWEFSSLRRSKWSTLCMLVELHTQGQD

Turning to `CCn1ncc(CN(C)C(=O)c2cc(-c3cc(NCCN(C)C)cc(C)n3)nc3ccc(Cl)cc23)c1C` [Compound 570], the concentration for half-maximal inhibition (IC50) at CREBBP (1084-1701) stood at 0.045 µM; at EP300 (P300(1048-1664)), 0.0137 µM; in test [1], 0.0763 µM; in the test on 647V cells it was 0.0301 µM.
For `CCc1ncc(CN(C)C(=O)c2cc(-c3ccc(NCC(O)CNC)c(C)n3)nc3ccc(Cl)cc23)n1C` (stereo not drawn) [Compound 571] the same measures were 0.0254 µM, 0.0111 µM, 0.428 µM and 0.118 µM.
The matching figures for `CCc1ncc(CN(C)C(=O)c2cc(-c3ccc(N(C)C4CN(C)C4)c(C)n3)nc3ccc(Cl)cc23)n1C` [Compound 572]: 0.116 µM, 0.0233 µM, 0.197 µM and 0.133 µM.
Consider `CCc1nc(-c2cc(C(=O)N(C)Cc3cnn(CC)c3C)c3cc(Cl)ccc3n2)ccc1NCCN(C)C` [Compound 573], for which the IC50 at CREBBP (1084-1701) worked out at 0.0465 µM; at EP300 (P300(1048-1664)), 0.0454 µM; in test [1], 0.0527 µM; in the test with 647V cells, 0.0493 µM.
For `CCc1ncc(CN(C)C(=O)c2nc(-c3cc(C)nc(NCCNC)c3)nc3ccc(Cl)cc23)n1C` [Compound 574] the same measures were 0.0479 µM, 0.0169 µM, 0.149 µM and 0.0613 µM.
For the compound `CCc1noc(CN(C)C(=O)c2cc(-c3ccc(NCCNC)c(C)n3)nc3ccc(Cl)cc23)n1` [Compound 575], the IC50 on CREBBP (1084-1701) was 3.38 µM; at EP300 (P300(1048-1664)) it was 3.87 µM; in test [1], 1.52 µM; in the test with 647V cells it was 1.53 µM.
For `CCc1nc(-c2cc(C(=O)N(C)Cc3cnc(CC)n3C)c3cc(COC)ccc3n2)ccc1NCCN(C)C` [Compound 580] the same measures were 0.0659 µM, 0.0439 µM, 0.176 µM and 0.13 µM.
Turning to `CCn1ncc(CN(C)C(=O)c2nc(-c3cnc4c[nH]nc4c3)nc3ccc(Cl)cc23)c1C` [Compound 581], the IC50 on CREBBP (1084-1701) turned out to be 3.31 µM; at EP300 (P300(1048-1664)) it was 1.43 µM; in test [1], 0.513 µM; in the test with 647V cells it was 0.839 µM.
For the compound `CCn1ncc(CN(C)C(=O)c2cc(-c3cc(C4=NCCN4)n(C)n3)nc3ccc(Cl)cc23)c1C` [Compound 582], the IC50 is 0.0258 µM on CREBBP (1084-1701), 0.0093 µM on EP300 (P300(1048-1664)), 0.0655 µM in test [1] and 0.122 µM in the test with 647V cells.
For `CCc1ncc(CN(C)C(=O)c2nc(-c3cc(C)nc(NCCN(C)C)c3)nc3ccc(Cl)cc23)n1C` [Compound 583] the same measures were 0.034 µM, 0.0142 µM, 0.0297 µM and 0.0108 µM.
As for `CCn1ncc(CN(C)C(=O)c2cc(-c3ccc(NCCNC)c(OC)c3)nc3ccc(Cl)cc23)c1C` [Compound 584], the IC50 at CREBBP (1084-1701) stood at 0.0445 µM; at EP300 (P300(1048-1664)), 0.221 µM; in test [1], 0.273 µM; in the test with 647V cells, 0.165 µM.
The matching figures for `CCn1ncc(CN(C)C(=O)c2cc(-c3ccc(NCCN(C)C)c(OC)c3)nc3ccc(Cl)cc23)c1C` [Compound 585]: 0.104 µM, 0.903 µM, 0.332 µM and 0.177 µM.
The matching figures for `CCc1nn(C)c(CN(C)C(=O)c2cc(-c3ccc(NCCNC)c(C)n3)nc3ccc(Cl)cc23)c1C` [Compound 586]: 19.4 µM, 23.3 µM, 7.24 µM and 2.13 µM.
Regarding `CCc1nn(C)c(CN(C)C(=O)c2cc(-c3ccc(NCCN(C)C)c(C)n3)nc3ccc(Cl)cc23)c1C` [Compound 587], the IC50 on CREBBP (1084-1701) stood at 14.2 µM; at EP300 (P300(1048-1664)), 17.3 µM; in test [1], 8.03 µM; in the test with 647V cells, 1.61 µM.
For `CCc1ncc(CN(C)C(=O)c2cc(-c3ccc(NCC(O)CN(C)C)c(C)n3)nc3ccc(Cl)cc23)n1C` (stereo not drawn) [Compound 588] the same measures were 0.0286 µM, 0.0089 µM, 0.0733 µM and 0.0279 µM.
As to `CCc1cc(CN(C)C(=O)c2cc(-c3ccc(NCCN(C)C)c(C)n3)nc3ccc(Cl)cc23)on1` [Compound 590], the IC50 on CREBBP (1084-1701) was 0.336 µM; on EP300 (P300(1048-1664)) it was 0.734 µM; in test [1], 0.403 µM; with 647V cells it was 0.39 µM.
`CCn1ncc(CN(C)C(=O)c2cc(-c3ccc(NCC(CN(C)C)OC)c(C)n3)nc3ccc(Cl)cc23)c1C` (stereo not drawn) [Compound 592]: the IC50 at CREBBP (1084-1701) is 0.0355 µM; on EP300 (P300(1048-1664)), 0.0109 µM; in test [1], 4.5 µM; with 647V cells it was 7.23 µM.
For the compound `CCc1nc(-c2cc(C(=O)N(C)Cc3onc(CC)c3C)c3cc(COC)ccc3n2)ccc1NCCN(C)C` [Compound 593], the IC50 on CREBBP (1084-1701) stood at 0.0539 µM; at EP300 (P300(1048-1664)), 0.175 µM; in test [1], 0.17 µM; in the test on 647V cells it was 0.103 µM.
The matching figures for `CCc1nc(-c2cc(C(=O)N(C)Cc3cnn(CC)c3C)c3cc(COC)ccc3n2)ccc1NCCNC` [Compound 595]: 0.0516 µM, 0.0599 µM, 0.145 µM and 0.0991 µM.
The matching figures for `Cc1nc(-c2cc(C(=O)N(C)Cc3cnn(CC(F)(F)F)c3C)c3cc(Cl)ccc3n2)ccc1NCCN(C)C` [Compound 597]: 0.0362 µM, 0.0285 µM, 0.0726 µM and 0.0787 µM.
For `Cc1nc(-c2cc(C(=O)N(C)Cc3cnc(C(F)(F)F)n3C)c3cc(Cl)ccc3n2)ccc1NCCN(C)C` [Compound 598] the same measures were 0.105 µM, 0.282 µM, 0.316 µM and 0.283 µM.
For the compound `CNCCNc1ccc(-c2cc(C(=O)N(C)Cc3onc(C4CC4)c3C)c3cc(Cl)ccc3n2)nc1C` [Compound 599], the IC50 at CREBBP (1084-1701) was 0.518 µM; at EP300 (P300(1048-1664)), 1.75 µM; in test [1], 1.6 µM; in the test on 647V cells, 1.26 µM.
For `CCn1ncc(CN(C)C(=O)c2cc(-c3ccc(NC4CN(CC#N)C4)c(C)n3)nc3ccc(Cl)cc23)c1C` [Compound 601] the same measures were 0.0449 µM, 0.0302 µM, 0.143 µM and 0.0726 µM.
Turning to `CCn1ncc(CN(C)C(=O)c2cc(-c3ccc(NC4CN(CC(F)(F)F)C4)c(C)n3)nc3ccc(Cl)cc23)c1C` [Compound 603], the IC50 amounted to 0.0487 µM at CREBBP (1084-1701), 0.0203 µM on EP300 (P300(1048-1664)), 0.175 µM in test [1] and 0.253 µM with 647V cells.
For `CCn1ncc(CN(C)C(=O)c2cc(-c3ccc(NCC(O)CN(C)C)c(C)n3)nc3ccc(Cl)cc23)c1C` (stereo not drawn) [Compound 604] the same measures were 0.0285 µM, 0.0114 µM, 0.0648 µM and 0.0284 µM.
The matching figures for `CCc1ncc(CN(C)C(=O)c2nc(-c3ccc(NCCN(C)C)nc3C)nc3ccc(Cl)cc23)n1C` [Compound 605]: 0.533 µM, 3.09 µM, 0.943 µM and 0.447 µM.
The matching figures for `CCc1noc(C(C)N(C)C(=O)c2nc(-c3ccc(NCCN(C)C)c(C)c3)nc3ccc(Cl)cc23)c1C` (stereo not drawn) [Compound 606]: 0.0303 µM, 0.014 µM, 0.294 µM and 0.0807 µM.
